Measured values reported in the OligoGym collection.
HELM strings list units from the 5' end as sugar, base in round brackets, then linkage (d deoxyribose, r ribose, m 2'-O-methyl, p phosphodiester). [sp] = phosphorothioate linkage

Legend:
[1] = target: CTNNB1; assay: HEK293-TLR8, 100 nM ASO, then resiquimod
[2] = target: CTNNB1; assay: HEK293-TLR7, 100 nM ASO, then resiquimod

Row | Substance | TLR8 potentiation (NF-kB luciferase) (fold of resiquimod alone) [1] | TLR7 signal (NF-kB luciferase) (% of resiquimod alone) [2]
1 | RNA1{m(A)[sp].m(U)[sp].m(U)[sp].m(U)[sp].m(U)[sp].d(A)[sp].d(A)[sp].d(G)[sp].d(C)[sp].d(A)[sp].d(T)[sp].d(A)[sp].d(T)[sp].d(T)[sp].d(A)[sp].m(A)[sp].m(A)[sp].m(A)[sp].m(A)[sp].m(G)}$$$$ | 2.37 | 47
2 | RNA1{m(G)[sp].m(G)[sp].m(U)[sp].m(G)[sp].m(G)[sp].d(T)[sp].d(G)[sp].d(G)[sp].d(C)[sp].d(C)[sp].d(A)[sp].d(C)[sp].d(C)[sp].d(C)[sp].d(A)[sp].m(U)[sp].m(C)[sp].m(U)[sp].m(C)[sp].m(A)}$$$$ | 1.11 | 75.6
3 | RNA1{m(C)[sp].m(A)[sp].m(U)[sp].m(A)[sp].m(U)[sp].d(T)[sp].d(A)[sp].d(A)[sp].d(A)[sp].d(A)[sp].d(A)[sp].d(G)[sp].d(G)[sp].d(A)[sp].d(A)[sp].m(A)[sp].m(C)[sp].m(U)[sp].m(A)[sp].m(A)}$$$$ | 2.31 | 108
4 | RNA1{m(C)[sp].m(U)[sp].m(C)[sp].m(A)[sp].m(U)[sp].d(T)[sp].d(A)[sp].d(T)[sp].d(A)[sp].d(T)[sp].d(T)[sp].d(T)[sp].d(A)[sp].d(C)[sp].d(T)[sp].m(A)[sp].m(A)[sp].m(A)[sp].m(G)[sp].m(C)}$$$$ | 3.46 | 93.5
5 | RNA1{m(U)[sp].m(C)[sp].m(C)[sp].m(A)[sp].m(U)[sp].d(C)[sp].d(C)[sp].d(C)[sp].d(T)[sp].d(T)[sp].d(C)[sp].d(C)[sp].d(T)[sp].d(G)[sp].d(T)[sp].m(U)[sp].m(U)[sp].m(A)[sp].m(G)[sp].m(U)}$$$$ | 4.57 | 96.4
6 | RNA1{m(A)[sp].m(C)[sp].m(C)[sp].m(C)[sp].m(A)[sp].d(C)[sp].d(T)[sp].d(T)[sp].d(G)[sp].d(G)[sp].d(C)[sp].d(A)[sp].d(G)[sp].d(A)[sp].d(C)[sp].m(C)[sp].m(A)[sp].m(U)[sp].m(C)[sp].m(A)}$$$$ | 2.74 | 65.8
7 | RNA1{m(C)[sp].m(U)[sp].m(U)[sp].m(A)[sp].m(U)[sp].d(T)[sp].d(T)[sp].d(T)[sp].d(A)[sp].d(A)[sp].d(G)[sp].d(C)[sp].d(A)[sp].d(T)[sp].d(A)[sp].m(U)[sp].m(U)[sp].m(A)[sp].m(A)[sp].m(A)}$$$$ | 2.88 | 123
8 | RNA1{m(U)[sp].m(C)[sp].m(A)[sp].m(U)[sp].m(U)[sp].d(A)[sp].d(T)[sp].d(A)[sp].d(T)[sp].d(T)[sp].d(T)[sp].d(A)[sp].d(C)[sp].d(T)[sp].d(A)[sp].m(A)[sp].m(A)[sp].m(G)[sp].m(C)[sp].m(U)}$$$$ | 4.22 | 65.5
9 | RNA1{m(U)[sp].m(C)[sp].m(U)[sp].m(A)[sp].m(U)[sp].d(T)[sp].d(T)[sp].d(G)[sp].d(T)[sp].d(C)[sp].d(T)[sp].d(A)[sp].d(T)[sp].d(T)[sp].d(T)[sp].m(U)[sp].m(A)[sp].m(U)[sp].m(A)[sp].m(C)}$$$$ | 4.61 | 92.8
10 | RNA1{m(U)[sp].m(C)[sp].m(A)[sp].m(A)[sp].m(U)[sp].d(G)[sp].d(G)[sp].d(G)[sp].d(A)[sp].d(G)[sp].d(A)[sp].d(A)[sp].d(T)[sp].d(A)[sp].d(A)[sp].m(A)[sp].m(G)[sp].m(C)[sp].m(A)[sp].m(G)}$$$$ | 3.97 | 68.9
11 | RNA1{m(G)[sp].m(G)[sp].m(C)[sp].m(C)[sp].m(A)[sp].d(T)[sp].d(C)[sp].d(T)[sp].d(C)[sp].d(T)[sp].d(G)[sp].d(C)[sp].d(T)[sp].d(T)[sp].d(C)[sp].m(U)[sp].m(U)[sp].m(G)[sp].m(G)[sp].m(U)}$$$$ | 0.82 | 35.9
12 | RNA1{m(A)[sp].m(C)[sp].m(C)[sp].m(C)[sp].m(A)[sp].d(A)[sp].d(G)[sp].d(G)[sp].d(C)[sp].d(A)[sp].d(T)[sp].d(C)[sp].d(C)[sp].d(T)[sp].d(G)[sp].m(G)[sp].m(C)[sp].m(C)[sp].m(A)[sp].m(U)}$$$$ | 2.29 | 70.7
13 | RNA1{m(C)[sp].m(U)[sp].m(U)[sp].m(G)[sp].m(G)[sp].d(T)[sp].d(G)[sp].d(T)[sp].d(C)[sp].d(G)[sp].d(G)[sp].d(C)[sp].d(T)[sp].d(G)[sp].d(G)[sp].m(U)[sp].m(C)[sp].m(A)[sp].m(G)[sp].m(A)}$$$$ | 2.15 | 79.8
